Patent publication US8119808B2, “Tetrahydroquinoline derivatives as cannabinoid receptor modulators” (Bristol-Myers Squibb Company, priority 2003, dated 2012)

melting point: 174 to 175 °C
Compound: N#Cc1ccc2c(c1)C[C@H](NS(=O)(=O)c1ccccc1)CN2C(=O)c1ccccc1
